Measurements taken from US20250032411A1, “A SELF-EMULSIFYING DRUG DELIVERY SYSTEM (SEDDS) OF PUNICIC ACID COMBINED WITH NEUROPROTECTIVE NATURAL PRODUCTS TO DELAY ONSET, PREVENT, OR REVERSE NEURODEGENERATIVE DISEASE” (TAHIRO INC., priority 2021, published 2025).

Columns and labels:
[1] = tested on: C57BL6 mice; assay: Y-maze Test of MK-801 induced cognitive decline; type: in vivo; details: N=12 per group, random = 33%
Experimental: The effect of pomegranate-CBD based formulation with a 12:1 pomegranate to CBD ratio on cognitive decline was further evaluated in C57BL6 mice. The cognitive decline of the mice was achieved using MK-801 and the cognitive ability of the mice were tested using the Y-maze Test. The experiment included three groups of mice, neutral control (N=12), MK-801 (N=12), MK-801 Pomegranate-CBD treated (N=12).

[2] = tested on: old mice; details: chronic low dose, 3 mg per kg bodyweight per day; cited from earlier work
[3] = tested on: Drosophila model of Parkinson's Disease; details: fly feeding, 75 mM in medium; cited from earlier work
[4] = tested on: mThyl-human alpha-synuclein transgenic mouse model; details: 1 g/kg/day interperitoneally; cited from earlier work
[5] = molecular target: alfa-synuclein (Homo sapiens, UniProt P37840); details: in vitro; cited from earlier work
[6] = tested on: Parkinson's disease patients; details: 18 g per day oral, cited from earlier work

For C[C@]12N[C@H](Cc3ccccc31)c1ccccc12 [MK-801], which “% of entries in the novel arm of the Y-maze” value [1] is on record?
The value was 31.8%.

Which cognitive function [2] does the source give for CCCCCc1cc(O)c2c(c1)OC(C)(C)[C@@H]1CCC(C)=C[C@@H]21 [THC, Δ9-tetrahydrocannabinol] here?
Its cognitive function is “restores cognitive function in old mice”.

What does the source list for OC[C@@H](O)[C@@H](O)[C@H](O)[C@H](O)CO [Mannitol]?
alpha-synuclein aggregates in the brains [3]: reduced the amount of alpha-synuclein aggregates; behavioral defects [3]: dramatically corrected behavioral defects; alpha-synuclein accumulation in brain regions [4]: a decrease in alpha-synuclein accumulation was detected in several brain regions; aggregation process of alfa-synuclein [5]: interfere with the aggregation process of alfa-synuclein; patients who tolerate the maximal dose ([6]; 36 weeks): only two thirds of patients tolerate this maximal dose; safety of long-term use [6]: safe
